Assay [1] concerns Pseudomonas aeruginosa. The assay is described as follows: Antibacterial activity against Pseudomonas aeruginosa PAO1 harboring gatA::ISphoA/haha mutation by Etest. The format is functional.
For assay [2], the system named is Pseudomonas aeruginosa. Kind of assay: Antibacterial activity against Pseudomonas aeruginosa PAO1 harboring phoU::ISphoA/haha mutation by Etest. The class given is functional.
Assay [3] concerns Pseudomonas aeruginosa. The assay is described as follows: Antibacterial activity against Pseudomonas aeruginosa PAO1 harboring gabD::ISphoA/haha mutation by Etest. The class given is functional.
Assay [4] has as its system Pseudomonas aeruginosa. The assay is described as follows: Antibacterial activity against Pseudomonas aeruginosa PAO1 harboring mmsA::ISphoA/haha mutation by Etest. The format is functional.
The test system of assay [5] is Pseudomonas aeruginosa. The assay is described as follows: Antibacterial activity against Pseudomonas aeruginosa PAO1 harboring yaaA::ISphoA/haha mutation by Etest. The class given is functional.
The test system of assay [6] is Pseudomonas aeruginosa. Kind of assay: Antibacterial activity against Pseudomonas aeruginosa PAO1 harboring gabD::ISlacZ/haha mutation by Etest. The class given is functional.
The subject of assay [7] is Pseudomonas aeruginosa. Kind of assay: Antibacterial activity against wild type Pseudomonas aeruginosa PAO1 assessed as viable bacterial count by Etest. The class given is functional.
The subject of assay [8] is Pseudomonas aeruginosa. Kind of assay: Antibacterial activity against Pseudomonas aeruginosa PAO1 horboring mmsA mutant gene assessed as viable bacterial count at 8 times MIC after 48 hrs by Etest. The format is functional, organism-based.
Assay [9] deals with Pseudomonas aeruginosa. The assay is described as follows: Antibacterial activity against Pseudomonas aeruginosa PAO1 horboring yaaA mutant gene assessed as viable bacterial count at 4 times MIC after 24 hrs by Etest. The class given is functional, organism-based.
Assay [10] concerns Pseudomonas aeruginosa. The assay is described as follows: Antibacterial activity against Pseudomonas aeruginosa PAO1 horboring yaaA mutant gene assessed as viable bacterial count at 8 times MIC after 48 hrs by Etest. The class given is functional, organism-based.
Assay [11] relates to Pseudomonas aeruginosa. The assay is described as follows: Antibacterial activity against wild type Pseudomonas aeruginosa PAK assessed as viable bacterial count at 0.5 times MIC after 48 hrs by Etest. The format is functional, organism-based.
For assay [12], the system named is Pseudomonas aeruginosa. Kind of assay: Antibacterial activity against Pseudomonas aeruginosa PAO1 horboring gabD mutant gene assessed as viable bacterial count at 4 times MIC after 24 hrs by Etest. The format is functional, organism-based.
Assay [13] concerns Pseudomonas aeruginosa. The assay is described as follows: Antibacterial activity against Pseudomonas aeruginosa PAO1 horboring gabD mutant gene assessed as viable bacterial count at 8 times MIC after 48 hrs by Etest. The class given is functional, organism-based.
In assay [14] the test system is Pseudomonas aeruginosa. Kind of assay: Antibacterial activity against Pseudomonas aeruginosa PAO1 horboring mmsA mutant gene assessed as viable bacterial count at 4 times MIC after 24 hrs by Etest. The format is functional, organism-based.

For six molecules, MIC and Activity results are on record in ChEMBL document CHEMBL1671741, “The development of ciprofloxacin resistance in Pseudomonas aeruginosa involves multiple response stages and multiple proteins” (2010).

Values after ≈ are worked out from the molar mass of the structure shown. Active and inactive are the calls of the source.

As to `NC[C@H]1O[C@H](O[C@H]2[C@H](O)[C@@H](O[C@H]3O[C@H](CO)[C@@H](O)[C@H](N)[C@H]3O)[C@H](N)C[C@@H]2N)[C@H](N)C[C@@H]1O` [TOBRAMYCIN], the minimum inhibitory concentration (MIC) against Pseudomonas aeruginosa [1] turned out to be 2 µg/mL (≈ 4.28 µM); in the assay on Pseudomonas aeruginosa [2] it was 2 µg/mL (≈ 4.28 µM); against Pseudomonas aeruginosa [3], 2 µg/mL (≈ 4.28 µM); with Pseudomonas aeruginosa [4], 1.5 µg/mL (≈ 3.21 µM); in the assay on Pseudomonas aeruginosa [5], 2 µg/mL (≈ 4.28 µM); in the assay with Pseudomonas aeruginosa [6], 2 µg/mL (≈ 4.28 µM). Besides, the minimal inhibitory concentration (MIC) with Pseudomonas aeruginosa [7] is 2 µg/mL (≈ 4.28 µM).

With `CC(C)(O/N=C(\C(=O)N[C@@H]1C(=O)N2C(C(=O)[O-])=C(C[n+]3ccccc3)CS[C@H]12)c1csc(N)n1)C(=O)O` [CEFTAZIDIME], the MIC in the assay with Pseudomonas aeruginosa [1] is 1 µg/mL (≈ 1.83 µM); against Pseudomonas aeruginosa [2], 1.5 µg/mL (≈ 2.74 µM); in the assay on Pseudomonas aeruginosa [3], 1 µg/mL (≈ 1.83 µM); in the assay on Pseudomonas aeruginosa [4] it was 1 µg/mL (≈ 1.83 µM); in the assay on Pseudomonas aeruginosa [5] it was 0.75 µg/mL (≈ 1.37 µM); against Pseudomonas aeruginosa [6] it was 1 µg/mL (≈ 1.83 µM). Further, in the assay on Pseudomonas aeruginosa [7], the MIC was 1 µg/mL (≈ 1.83 µM).

For the molecule GENTAMICIN, the MIC against Pseudomonas aeruginosa [1] was 3 µg/mL; in the assay on Pseudomonas aeruginosa [2], 3 µg/mL; in the assay with Pseudomonas aeruginosa [3] it was 3 µg/mL; against Pseudomonas aeruginosa [4], 2 µg/mL; against Pseudomonas aeruginosa [5] it was 3 µg/mL; in the assay with Pseudomonas aeruginosa [6], 3 µg/mL. Also, the minimal inhibitory concentration (MIC) in the assay with Pseudomonas aeruginosa [7] is 2 µg/mL.

On to `C[C@H]1COc2c(N3CCN(C)CC3)c(F)cc3c(=O)c(C(=O)O)cn1c23.C[C@H]1COc2c(N3CCN(C)CC3)c(F)cc3c(=O)c(C(=O)O)cn1c23.O` [LEVOFLOXACIN], for which the MIC is 0.5 µg/mL in the assay on Pseudomonas aeruginosa [1]; 0.25 µg/mL against Pseudomonas aeruginosa [3]; 0.25 µg/mL in the assay with Pseudomonas aeruginosa [4]; 0.25 µg/mL against Pseudomonas aeruginosa [5]; 0.25 µg/mL in the assay on Pseudomonas aeruginosa [6].

Consider `O=C(O)c1cn(C2CC2)c2cc(N3CCNCC3)c(F)cc2c1=O` [CIPROFLOXACIN], for which the outcome with Pseudomonas aeruginosa [8], in the assay with Pseudomonas aeruginosa [9], in the assay on Pseudomonas aeruginosa [10] and with Pseudomonas aeruginosa [13] was Active. Further, the outcome with Pseudomonas aeruginosa [11], in the assay with Pseudomonas aeruginosa [12] and with Pseudomonas aeruginosa [14] was inactive. The minimal inhibitory concentration (MIC) against Pseudomonas aeruginosa [1] is 0.19 µg/mL (≈ 0.573 µM).

With `C[C@@H](O)[C@H]1C(=O)N2C(C(=O)O)=C(SCCNC=N)C[C@H]12` [IMIPENEM ANHYDROUS], the MIC against Pseudomonas aeruginosa [1] worked out at 4 µg/mL (≈ 13.4 µM); with Pseudomonas aeruginosa [2] it was 4 µg/mL (≈ 13.4 µM); against Pseudomonas aeruginosa [3], 1.5 µg/mL (≈ 5.01 µM); against Pseudomonas aeruginosa [4], 1 µg/mL (≈ 3.34 µM); against Pseudomonas aeruginosa [5], 2 µg/mL (≈ 6.68 µM); with Pseudomonas aeruginosa [6] it was 1.5 µg/mL (≈ 5.01 µM). For the same molecule, the MIC in the assay with Pseudomonas aeruginosa [7] amounted to 4 µg/mL (≈ 13.4 µM).

As usually defined, the MIC is the smallest concentration in the dilution series that meets the test's criterion for growth inhibition.
